Assay results taken from patent publication US11667651B2, “Aminopyridine derivatives as phosphatidylinositol phosphate kinase inhibitors” (HiberCell, Inc., priority 2017, dated 2023).

Legend:
Type in all cases: biochemical
PIP4K2A [1] = biological target: T1, PIP4K2A (Homo sapiens, UniProt P48426); experiment: Kinase Assay PIP4K2 A (Table 2); set-up: 4 nM PIP4K2A (full length protein, SignalChem); purchased SignalChem; settings: compounds listed under IC50 bins
T1 sequence (P48426 1-406): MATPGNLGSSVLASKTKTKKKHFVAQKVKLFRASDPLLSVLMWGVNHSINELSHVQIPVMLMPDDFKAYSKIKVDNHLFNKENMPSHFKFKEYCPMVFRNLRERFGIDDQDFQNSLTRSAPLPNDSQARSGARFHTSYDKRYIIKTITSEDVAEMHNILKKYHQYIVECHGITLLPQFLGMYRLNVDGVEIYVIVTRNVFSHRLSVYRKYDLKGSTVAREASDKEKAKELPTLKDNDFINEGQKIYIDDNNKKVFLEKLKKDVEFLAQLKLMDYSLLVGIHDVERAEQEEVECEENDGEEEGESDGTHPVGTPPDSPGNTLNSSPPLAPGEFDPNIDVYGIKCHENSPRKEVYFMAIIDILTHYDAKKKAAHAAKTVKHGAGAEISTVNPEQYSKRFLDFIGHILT
In short: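 Full-length PIP4K2A (4 nM in the added mix, with 100 μM PI(5)P diC8) pre-incubated 15 min at RT with compounds (10-point, 3-fold series) in 20 mM MOPS pH 7.2, 25 mM MgCl2, 0.005% Tween 20. ATP added from a 60 μM solution, 1 h at RT; ADP-Glo luminescence, IC50 fitted from % inhibition versus DMSO.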

PIP4K2A [2] = biological target: T1, PIP4K2A; experiment: ADP-glo kinase assay PIP4K 2A (Table 3); set-up: made in house; host or cells: E. coli; settings: compounds listed under IC50 bins
Method: Dilution series of the compounds were prepared in DMSO at 100 times the final assay concentration (n1=n0/3 in 10 points). The compounds were further diluted to three times the assay concentration in assay buffer (20 mM MOPS pH 7.2, 25 mM magnesium chloride, 0.005% Tween 20). 6 μL of the diluted compounds were added to a 384 well assay plate followed by 9 μL of a mix consisting of 4 nM PIP4K2A (full length protein, SignalChem) and 100 μM PI(5)P diC8 (Tebu-Bio). Enzyme and compounds were pre-incubated at room temperature for 15 minutes.
Then 3 μL of a solution containing 60 μM ATP (Promega) in assay buffer was added to the wells containing compound and enzyme and mixing was performed by pipetting several times. The reaction was incubated at room temperature for 1 h. Then 18 μL of ADP-Glo™ Reagent (Promega) was added to stop the kinase reaction and deplete the unconsumed ATP, mixing was performed by pipetting several times. The plate was incubated at room temperature for 40 minutes before addition of 36 μL of Kinase Detection Reagent (Promega) to convert ADP to ATP and introduce luciferase and luciferin to detect ATP. The reaction was incubated at room temperature for 40 minutes before the luminescence was measured in a in a Victor 3V 1420 multilabel counter (Perkin Elmer).
Percent inhibition of the compounds as compared to dimethyl sulfoxide treated control samples was calculated. Compound concentration versus percent inhibition were fitted to generate IC50 values. […]

PIP4K2B = biological target: T2, PIP4K2B (Homo sapiens, UniProt P78356); experiment: Trans-FI P kinase assay PIP4K2B (Table 4); settings: compounds listed under IC50 bins; read-out: Trans-FI P kinase assays: PIP4K2B IC50
T2 construct: made in house; host or cells: E. coli
T2 sequence (P78356 1-416): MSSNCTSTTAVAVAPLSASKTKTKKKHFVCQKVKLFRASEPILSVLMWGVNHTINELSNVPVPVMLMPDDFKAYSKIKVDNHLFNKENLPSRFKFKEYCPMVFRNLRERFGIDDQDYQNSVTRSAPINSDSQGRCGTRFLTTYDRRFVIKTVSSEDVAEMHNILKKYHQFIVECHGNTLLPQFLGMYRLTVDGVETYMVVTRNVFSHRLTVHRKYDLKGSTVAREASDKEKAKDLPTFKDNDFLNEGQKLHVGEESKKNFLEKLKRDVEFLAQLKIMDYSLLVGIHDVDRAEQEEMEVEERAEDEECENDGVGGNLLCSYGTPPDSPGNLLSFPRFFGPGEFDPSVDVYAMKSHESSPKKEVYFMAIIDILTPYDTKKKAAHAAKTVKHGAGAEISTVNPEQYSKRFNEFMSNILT
In short: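 Transcreener FI detection (Ex 584/Em 623) of GDP, converted via calibration curve, gives IC50 from residual activity versus log concentration (highest 4.8 μM). Reaction: 80 μM PI5P plus DOPE carrier, 100 μM GTP, 5 nM GST-tagged enzyme, pH 7.3 HEPES with MgCl2 and 5% DMSO, 2 h after 1 h enzyme-compound preincubation at 27° C.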

SMILES	IC50 (PIP4K2A [1])	IC50 (PIP4K2A [2])	IC50 (PIP4K2B)
CN(C)C(=O)c1cnc(-c2ccc(Nc3cccnc3)nc2)nc1 [Example 29, N,N-dimethyl-2-(6-(pyridin-3-ylamino)pyridin-3-yl)pyrimidine-5-carboxamide]	> 1 µM	> 1 µM	> 1 µM
COc1cc(C(=O)Nc2cncc(Nc3ccc(-c4ccc(N5CCCC5=O)cc4)cn3)c2)c2[nH]cnc2c1 [Example 253, 5-methoxy-N-(5-((5-(4-(2-oxopyrrolidin-1-yl)phenyl)pyridin-2-yl)amino)pyridin-3-yl)-1H-benzo[d]imidazole-7-carboxamide]		0.01 to 0.1 µM	0.01 to 0.1 µM
CC1(C)C[C@H]2COc3ncc(Nc4ccc(-c5ccc(N6CCCC6=O)cc5)cn4)cc3N2C1=O [Example 255, (S)-8,8-dimethyl-2-((5-(4-(2-oxopyrrolidin-1-yl)phenyl)pyridin-2-yl)amino)-6,6a,7,8-tetrahydro-9H-pyrido[2,3-b]pyrrolo[1,2-d][1,4]oxazin-9-one]		0.001 to 0.01 µM	0.01 to 0.1 µM
CC1CN(C(=O)Nc2cncc(Nc3ccc(-c4ccc(N5CCCC5=O)cc4)cn3)c2)CCN1 (stereo not drawn) [Example 256, 3-methyl-N-(5-((5-(4-(2-oxopyrrolidin-1-yl)phenyl)pyridin-2-yl)amino)pyridin-3-yl)piperazine-1-carboxamide]		0.01 to 0.1 µM	0.01 to 0.1 µM
O=C(Nc1cncc(Nc2ccc(-c3ccc(N4CCCC4=O)cc3)cn2)c1)N1CCNC(C2CC2)C1 (stereo not drawn) [Example 257, 3-cyclopropyl-N-(5-((5-(4-(2-oxopyrrolidin-1-yl)phenyl)pyridin-2-yl)amino)pyridin-3-yl)piperazine-1-carboxamide]		0.1 to 1 µM	0.01 to 0.1 µM
O=C(Nc1cncc(Nc2ccc(-c3ccc(N4CCCC4=O)cc3)cn2)c1)N1CCOC(C2CC2)C1 (stereo not drawn) [Example 262, 2-cyclopropyl-N-(5-((5-(4-(2-oxopyrrolidin-1-yl)phenyl)pyridin-2-yl)amino)pyridin-3-yl)morpholine-4-carboxamide]		0.1 to 1 µM	0.01 to 0.1 µM
O=C1CCCN1c1ccc(-c2ccc(Nc3cnc4c(c3)N3C(=O)OC[C@H]3CO4)nc2)cc1 [Example 265, (R)-8-((5-(4-(2-oxopyrrolidin-1-yl)phenyl)pyridin-2-yl)amino)-3a,4-dihydro-1H,3H-oxazolo[3,4-d]pyrido[2,3-b][1,4]oxazin-1-one]		0.001 to 0.01 µM	0.01 to 0.1 µM
CC(C)(N)c1cc(Nc2cnc3c(c2)N2C(=O)CC[C@H]2CO3)ncc1-c1ccc(N2CCCC2=O)cc1F [Example 266, (S)-2-((4-(2-aminopropan-2-yl)-5-(2-fluoro-4-(2-oxopyrrolidin-1-yl)phenyl)pyridin-2-yl)amino)-6,6a,7,8-tetrahydro-9H-pyrido[2,3-b]pyrrolo[1,2-d][1,4]oxazin-9-one]		0.001 to 0.01 µM	0.01 to 0.1 µM
C[C@@]1(O)C[C@H]2COc3ncc(Nc4ccc(-c5ccc(N6CCCC6=O)cc5)cn4)cc3N2C1=O [Example 271, (6aS,8R)-8-hydroxy-8-methyl-2-((5-(4-(2-oxopyrrolidin-1-yl)phenyl)pyridin-2-yl)amino)-6,6a,7,8-tetrahydro-9H-pyrido[2,3-b]pyrrolo[1,2-d][1,4]oxazin-9-one]		0.01 to 0.1 µM	0.01 to 0.1 µM
O=C1CCCN1c1ccc(-c2ccc(Nc3cnc4c(c3)N3C(=O)OC[C@H]3CO4)nc2)cc1F [Example 295, (R)-8-((5-(3-fluoro-4-(2-oxopyrrolidin-1-yl)phenyl)pyridin-2-yl)amino)-3a,4-dihydro-1H,3H-oxazolo[3,4-d]pyrido[2,3-b][1,4]oxazin-1-one]		0.001 to 0.01 µM	0.01 to 0.1 µM

Next, values leading:

IC50 (PIP4K2A [1])	IC50 (PIP4K2A [2])	IC50 (PIP4K2B)	SMILES
	0.1 to 1 µM	0.01 to 0.1 µM	CC1CN(C(=O)Nc2cncc(Nc3ccc(-c4ccc(N5CCCC5=O)cc4)cn3)c2)CCO1 (stereo not drawn) [Example 250, 2-methyl-N-(5-((5-(4-(2-oxopyrrolidin-1-yl)phenyl)pyridin-2-yl)amino)pyridin-3-yl)morpholine-4-carboxamide]
	0.1 to 1 µM	0.01 to 0.1 µM	O=C(Nc1cncc(Nc2ccc(-c3ccc(N4CCCC4=O)cc3)cn2)c1)N1CCOCC1 [Example 251, N-(5-((5-(4-(2-oxopyrrolidin-1-yl)phenyl)pyridin-2-yl)amino)pyridin-3-yl)morpholine-4-carboxamide]
	0.01 to 0.1 µM	0.01 to 0.1 µM	O=C(Nc1cncc(Nc2ccc(-c3ccc(N4CCCC4=O)cc3)cn2)c1)c1nn[nH]n1 [Example 254, N-(5-((5-(4-(2-oxopyrrolidin-1-yl)phenyl)pyridin-2-yl)amino)pyridin-3-yl)-2H-tetrazole-5-carboxamide]
	0.01 to 0.1 µM	0.01 to 0.1 µM	CC1C[C@H]2COc3ncc(Nc4ccc(-c5ccc(N6CCCC6=O)cc5)cn4)cc3N2C1=O (stereo partly drawn) [Example 259, (6aS)-8-methyl-2-((5-(4-(2-oxopyrrolidin-1-yl)phenyl)pyridin-2-yl)amino)-6,6a,7,8-tetrahydro-9H-pyrido[2,3-b]pyrrolo[1,2-d][1,4]oxazin-9-one]
	0.001 to 0.01 µM	0.001 to 0.01 µM	O=C1CCCN1c1ccc(-c2ccc(Nc3cnc4c(c3)N3C(=O)C5(CC5)C[C@H]3CO4)nc2)cc1 [Example 260, (S)-2′-((5-(4-(2-oxopyrrolidin-1-yl)phenyl)pyridin-2-yl)amino)-6a′,7′-dihydro-6′H,9′H-spiro[cyclopropane-1,8′-pyrido[2,3-b]pyrrolo[1,2-d][1,4]oxazin]-9′-one]
	0.001 to 0.01 µM	0.01 to 0.1 µM	CC1C[C@H]2COc3ncc(Nc4ccc(-c5ccc(N6CCCC6=O)c(F)c5)cn4)cc3N2C1=O (stereo partly drawn) [Example 261, (6aS)-2-((5-(3-fluoro-4-(2-oxopyrrolidin-1-yl)phenyl)pyridin-2-yl)amino)-8-methyl-6,6a,7,8-tetrahydro-9H-pyrido[2,3-b]pyrrolo[1,2-d][1,4]oxazin-9-one]
	> 1 µM	> 1 µM	CN1CCC(c2ccc(-c3ccc(Nc4cnc5c(c4)N4C(=O)CC[C@@H]4CO5)nc3)cc2)C1=O (stereo partly drawn) [Example 269, (6aR)-2-((5-(4-(1-methyl-2-oxopyrrolidin-3-yl)phenyl)pyridin-2-yl)amino)-6,6a,7,8-tetrahydro-9H-pyrido[2,3-b]pyrrolo[1,2d][1,4]oxazin-9-one]
	0.01 to 0.1 µM	0.01 to 0.1 µM	C[C@@]1(O)C[C@H]2COc3ncc(Nc4ccc(-c5ccc(N6CCCC6=O)c(F)c5)cn4)cc3N2C1=O [Example 270, (6aS,8R)-2-((5-(3-fluoro-4-(2-oxopyrrolidin-1-yl)phenyl)pyridin-2-yl)amino)-8-hydroxy-8-methyl-6,6a,7,8-tetrahydro-9H-pyrido[2,3-b]pyrrolo[1,2-d][1,4]oxazin-9-one]
	0.1 to 1 µM	0.01 to 0.1 µM	O=C1NCCN1c1cncc(Nc2ccc(-c3ccc(N4CCCC4=O)c(F)c3)cn2)c1 [Example 272, 1-(5-((5-(3-fluoro-4-(2-oxopyrrolidin-1-yl)phenyl)pyridin-2-yl)amino)pyridin-3-yl)imidazolidin-2-one]
